The text below walks through data of ChEMBL document CHEMBL1143512, “Antitubercular agents. Part 2: new thiolactomycin analogues active against Mycobacterium tuberculosis” (2005).

In brackets after ≈: the same amount, converted by molar mass.

The first test concerns Mycobacterium intracellulare. The experiment in a line: Minimum inhibitory concentration against Mycobacterium intracellular ATCC 13950. The test is classed as functional.
For `CC1=C(OCCCCCCCCN2CCOCC2)C(C)SC1=O` (stereo not given), the MIC is > 16 µg/mL.
Regarding `CC1=C(OCCCN2CCOCC2)C(C)SC1=O` (stereo not given), the MIC is > 16 µg/mL.
Same read-out and setting: the figure for `COC(=O)CSCCCCCCCCOC1=C(C)C(=O)SC1C` (stereo not given) is 4 µg/mL (≈ 11.1 µM); for `NNC(=O)c1ccncc1` [ISONIAZID] it is 8 µg/mL (≈ 58.3 µM).
Regarding `CC1=C(OCCCCCCCCN2CCN(C)CC2)C(C)SC1=O` (stereo not given), the MIC is > 16 µg/mL.
Same read-out and setting: for `CC1=C(OCCCCCCCCBr)C(C)SC1=O` (stereo not given) the value was > 16 µg/mL; for `CC1=C(OCCCCCN2CCN(C)CC2)C(C)SC1=O` (stereo not given), > 16 µg/mL.
Take `COC(=O)CSCCCCCCOC1=C(C)C(=O)SC1C` (stereo not given): the MIC was > 16 µg/mL.
On the same count and under the same terms, the figure for `CC1=C(OCCCN2CCN(C)CC2)C(C)SC1=O` (stereo not given) is > 16 µg/mL; for `CC1=C(OCCCCCCBr)C(C)SC1=O` (stereo not given) it is > 16 µg/mL; for `CC1=C(OCCCCN2CCN(C)CC2)C(C)SC1=O` (stereo not given) it is > 16 µg/mL.
On the same count and under the same terms, the figure for `COC(=O)CSCCCCCOC1=C(C)C(=O)SC1C` (stereo not given) is > 16 µg/mL; for `CC1=C(OCCCCCCCCCCN2CCN(C)CC2)C(C)SC1=O` (stereo not given) it is > 16 µg/mL.
Consider `CC1=C(OCCCCCCN2CCOCC2)C(C)SC1=O` (stereo not given), for which the MIC is > 16 µg/mL.
With `CC1=C(OCCCCBr)C(C)SC1=O` (stereo not given), the MIC is > 16 µg/mL.
The same measure, in the same setting: for `COC(=O)CSCCCOC1=C(C)C(=O)SC1C` (stereo not given) the value was > 16 µg/mL; for `COC(=O)CSCCCCOC1=C(C)C(=O)SC1C` (stereo not given), > 16 µg/mL; for `COC(=O)CSCCCCCCCCCCOC1=C(C)C(=O)SC1C` (stereo not given), > 16 µg/mL.
Still for that read-out and setting: for `CC1=C(OCCCBr)C(C)SC1=O` (stereo not given) the value was > 16 µg/mL; for `CC1=C(OCCCCCCCCCCBr)C(C)SC1=O` (stereo not given), > 16 µg/mL.
Same read-out and setting: the figure for `CC1=C(OCCCCCCN2CCN(C)CC2)C(C)SC1=O` (stereo not given) is > 16 µg/mL; for `CC1=C(OCCCCN2CCOCC2)C(C)SC1=O` (stereo not given) it is > 16 µg/mL; for `CC1=C(OCCCCCN2CCOCC2)C(C)SC1=O` (stereo not given) it is > 16 µg/mL.
On to `CC1=C(OCCCCCCCCCCN2CCOCC2)C(C)SC1=O` (stereo not given), for which the MIC is > 16 µg/mL.
The same measure, in the same setting: the figure for `CC1=C(OCCCCCBr)C(C)SC1=O` (stereo not given) is > 16 µg/mL.

A further test deals with Mycobacterium tuberculosis. The test can be described thus: Minimum inhibitory concentration against Mycobacterium tuberculosis H37Rv ATCC 27294. The class given is functional.
Regarding `CC1=C(OCCCCCCCCN2CCOCC2)C(C)SC1=O` (stereo not given), the minimum inhibitory concentration (MIC) is > 16 µg/mL.
Same read-out and setting: the figure for `CC1=C(OCCCN2CCOCC2)C(C)SC1=O` (stereo not given) is > 16 µg/mL; for `COC(=O)CSCCCCCCCCOC1=C(C)C(=O)SC1C` (stereo not given) it is 1 µg/mL (≈ 2.77 µM).
Still for that read-out and setting: the figure for `NNC(=O)c1ccncc1` [ISONIAZID] is 0.25 µg/mL (≈ 1.82 µM); for `CC1=C(OCCCCCCCCN2CCN(C)CC2)C(C)SC1=O` (stereo not given) it is > 16 µg/mL.
Still for that read-out and setting: the figure for `CC1=C(OCCCCCCCCBr)C(C)SC1=O` (stereo not given) is > 16 µg/mL; for `CC1=C(OCCCCCN2CCN(C)CC2)C(C)SC1=O` (stereo not given) it is > 16 µg/mL.
As for `COC(=O)CSCCCCCCOC1=C(C)C(=O)SC1C` (stereo not given), the MIC is > 16 µg/mL.
The same measure, in the same setting: the figure for `CC1=C(OCCCN2CCN(C)CC2)C(C)SC1=O` (stereo not given) is > 16 µg/mL; for `CC1=C(OCCCCCCBr)C(C)SC1=O` (stereo not given) it is > 16 µg/mL.
On the same count and under the same terms, for `CC1=C(OCCCCN2CCN(C)CC2)C(C)SC1=O` (stereo not given) the value was > 16 µg/mL; for `COC(=O)CSCCCCCOC1=C(C)C(=O)SC1C` (stereo not given), > 16 µg/mL; for `CC1=C(OCCCCCCCCCCN2CCN(C)CC2)C(C)SC1=O` (stereo not given), > 16 µg/mL.
On the same count and under the same terms, for `CC1=C(OCCCCCCN2CCOCC2)C(C)SC1=O` (stereo not given) the value was > 16 µg/mL.
`CC1=C(OCCCCBr)C(C)SC1=O` (stereo not given): the MIC is > 16 µg/mL.
For `COC(=O)CSCCCOC1=C(C)C(=O)SC1C` (stereo not given), the MIC is > 16 µg/mL.
Same read-out and setting: the figure for `COC(=O)CSCCCCOC1=C(C)C(=O)SC1C` (stereo not given) is > 16 µg/mL; for `COC(=O)CSCCCCCCCCCCOC1=C(C)C(=O)SC1C` (stereo not given) it is > 16 µg/mL.
On the same count and under the same terms, the figure for `CC1=C(OCCCBr)C(C)SC1=O` (stereo not given) is > 16 µg/mL.
As for `CC1=C(OCCCCCCCCCCBr)C(C)SC1=O` (stereo not given), inhibition of growth (MIC) required 4 µg/mL (≈ 11 µM).
On the same count and under the same terms, for `CC1=C(OCCCCCCN2CCN(C)CC2)C(C)SC1=O` (stereo not given) the value was > 16 µg/mL.
The same measure, in the same setting: the figure for `CC1=C(OCCCCN2CCOCC2)C(C)SC1=O` (stereo not given) is > 16 µg/mL; for `CC1=C(OCCCCCN2CCOCC2)C(C)SC1=O` (stereo not given) it is > 16 µg/mL; for `CC1=C(OCCCCCCCCCCN2CCOCC2)C(C)SC1=O` (stereo not given) it is > 16 µg/mL.
On the same count and under the same terms, the figure for `CC1=C(OCCCCCBr)C(C)SC1=O` (stereo not given) is > 16 µg/mL.

For another test, the system named is Mycobacterium tuberculosis. The experiment in a line: Minimum inhibitory concentration against Mycobacterium tuberculosis sensitive clinical isolates. The test is classed as functional.
As to `CC1=C(OCCCCCCCCN2CCOCC2)C(C)SC1=O` (stereo not given), the MIC was > 16 µg/mL.
Same read-out and setting: the figure for `CC1=C(OCCCN2CCOCC2)C(C)SC1=O` (stereo not given) is > 16 µg/mL; for `CC1=C(OCCCCCCCCN2CCN(C)CC2)C(C)SC1=O` (stereo not given) it is > 16 µg/mL.
On the same count and under the same terms, the figure for `CC1=C(OCCCCCCCCBr)C(C)SC1=O` (stereo not given) is > 16 µg/mL; for `CC1=C(OCCCCCN2CCN(C)CC2)C(C)SC1=O` (stereo not given) it is > 16 µg/mL; for `COC(=O)CSCCCCCCOC1=C(C)C(=O)SC1C` (stereo not given) it is > 16 µg/mL.
The same measure, in the same setting: the figure for `CC1=C(OCCCN2CCN(C)CC2)C(C)SC1=O` (stereo not given) is > 16 µg/mL; for `CC1=C(OCCCCCCBr)C(C)SC1=O` (stereo not given) it is > 16 µg/mL; for `CC1=C(OCCCCN2CCN(C)CC2)C(C)SC1=O` (stereo not given) it is > 16 µg/mL.
As for `COC(=O)CSCCCCCOC1=C(C)C(=O)SC1C` (stereo not given), the MIC is > 16 µg/mL.
The same measure, in the same setting: for `CC1=C(OCCCCCCCCCCN2CCN(C)CC2)C(C)SC1=O` (stereo not given) the value was > 16 µg/mL; for `CC1=C(OCCCCCCN2CCOCC2)C(C)SC1=O` (stereo not given), > 16 µg/mL.
The same measure, in the same setting: for `CC1=C(OCCCCBr)C(C)SC1=O` (stereo not given) the value was > 16 µg/mL; for `COC(=O)CSCCCOC1=C(C)C(=O)SC1C` (stereo not given), > 16 µg/mL; for `COC(=O)CSCCCCOC1=C(C)C(=O)SC1C` (stereo not given), > 16 µg/mL.
Same read-out and setting: the figure for `COC(=O)CSCCCCCCCCCCOC1=C(C)C(=O)SC1C` (stereo not given) is > 16 µg/mL; for `CC1=C(OCCCBr)C(C)SC1=O` (stereo not given) it is > 16 µg/mL; for `CC1=C(OCCCCCCN2CCN(C)CC2)C(C)SC1=O` (stereo not given) it is > 16 µg/mL.
Regarding `CC1=C(OCCCCN2CCOCC2)C(C)SC1=O` (stereo not given), the MIC was > 16 µg/mL.
As to `CC1=C(OCCCCCN2CCOCC2)C(C)SC1=O` (stereo not given), the MIC was > 16 µg/mL.
Still for that read-out and setting: the figure for `CC1=C(OCCCCCCCCCCN2CCOCC2)C(C)SC1=O` (stereo not given) is > 16 µg/mL; for `CC1=C(OCCCCCBr)C(C)SC1=O` (stereo not given) it is > 16 µg/mL.

The next test has as its system Mycobacterium tuberculosis. The test can be described thus: Minimum inhibitory concentration against Mycobacterium tuberculosis sensitive clinical isolates; Range: 1-4 ug/ml. The test is classed as functional.
Compound `COC(=O)CSCCCCCCCCOC1=C(C)C(=O)SC1C` (stereo not given) yielded an MIC of 4 µg/mL (≈ 11.1 µM).

A further test concerns Mycobacterium tuberculosis. The test can be described thus: Minimum inhibitory concentration against Mycobacterium tuberculosis sensitive clinical isolates; Range: 0.125-0.25 ug/ml. The test is classed as functional.
With `NNC(=O)c1ccncc1` [ISONIAZID], the MIC was 0.25 µg/mL (≈ 1.82 µM).

The test system of another test is Mycobacterium tuberculosis. The test can be described thus: Minimum inhibitory concentration against Mycobacterium tuberculosis sensitive clinical isolates; Range:4-16 ug/ml. The test is classed as functional.
`CC1=C(OCCCCCCCCCCBr)C(C)SC1=O` (stereo not given) registered an MIC of 16 µg/mL (≈ 44 µM).

The test system of a further test is Mycobacterium avium. The test can be described thus: Minimum inhibitory concentration against Mycobacterium avium ATCC 49601. The test is classed as functional.
Turning to `CC1=C(OCCCCCCCCN2CCOCC2)C(C)SC1=O` (stereo not given), the MIC was > 16 µg/mL.
Same read-out and setting: for `CC1=C(OCCCN2CCOCC2)C(C)SC1=O` (stereo not given) the value was > 16 µg/mL; for `COC(=O)CSCCCCCCCCOC1=C(C)C(=O)SC1C` (stereo not given), 8 µg/mL (≈ 22.2 µM); for `NNC(=O)c1ccncc1` [ISONIAZID], > 16 µg/mL.
On the same count and under the same terms, the figure for `CC1=C(OCCCCCCCCN2CCN(C)CC2)C(C)SC1=O` (stereo not given) is > 16 µg/mL; for `CC1=C(OCCCCCCCCBr)C(C)SC1=O` (stereo not given) it is > 16 µg/mL.
Same read-out and setting: for `CC1=C(OCCCCCN2CCN(C)CC2)C(C)SC1=O` (stereo not given) the value was > 16 µg/mL.
Consider `COC(=O)CSCCCCCCOC1=C(C)C(=O)SC1C` (stereo not given), for which the minimum inhibitory concentration (MIC) is > 16 µg/mL.
Same read-out and setting: for `CC1=C(OCCCN2CCN(C)CC2)C(C)SC1=O` (stereo not given) the value was > 16 µg/mL; for `CC1=C(OCCCCCCBr)C(C)SC1=O` (stereo not given), > 16 µg/mL.
Still for that read-out and setting: the figure for `CC1=C(OCCCCN2CCN(C)CC2)C(C)SC1=O` (stereo not given) is > 16 µg/mL; for `COC(=O)CSCCCCCOC1=C(C)C(=O)SC1C` (stereo not given) it is > 16 µg/mL.
Same read-out and setting: for `CC1=C(OCCCCCCCCCCN2CCN(C)CC2)C(C)SC1=O` (stereo not given) the value was > 16 µg/mL; for `CC1=C(OCCCCCCN2CCOCC2)C(C)SC1=O` (stereo not given), > 16 µg/mL.
As for `CC1=C(OCCCCBr)C(C)SC1=O` (stereo not given), the MIC was > 16 µg/mL.
Still for that read-out and setting: the figure for `COC(=O)CSCCCOC1=C(C)C(=O)SC1C` (stereo not given) is > 16 µg/mL; for `COC(=O)CSCCCCOC1=C(C)C(=O)SC1C` (stereo not given) it is > 16 µg/mL.
`COC(=O)CSCCCCCCCCCCOC1=C(C)C(=O)SC1C` (stereo not given): the MIC was > 16 µg/mL.
On the same count and under the same terms, for `CC1=C(OCCCBr)C(C)SC1=O` (stereo not given) the value was > 16 µg/mL; for `CC1=C(OCCCCCCCCCCBr)C(C)SC1=O` (stereo not given), > 16 µg/mL.
With `CC1=C(OCCCCCCN2CCN(C)CC2)C(C)SC1=O` (stereo not given), the MIC was > 16 µg/mL.
Same read-out and setting: for `CC1=C(OCCCCN2CCOCC2)C(C)SC1=O` (stereo not given) the value was > 16 µg/mL.
On the same count and under the same terms, for `CC1=C(OCCCCCN2CCOCC2)C(C)SC1=O` (stereo not given) the value was > 16 µg/mL.
`CC1=C(OCCCCCCCCCCN2CCOCC2)C(C)SC1=O` (stereo not given): the MIC is > 16 µg/mL.
With `CC1=C(OCCCCCBr)C(C)SC1=O` (stereo not given), the minimum inhibitory concentration (MIC) is > 16 µg/mL.

The term MIC denotes the smallest concentration in the dilution series that meets the test's criterion for growth inhibition.
